Data taken from US8088806B2 (Achillion Pharmaceuticals, Inc., priority 2005, dated 2012).
pEC50: −log10 of the molar value.

test system: HCV replicon; test: Replicon based assay of HCV replication inhibition (NPT ELISA); format: cell-based, Hepatitis C virus; settings: Hepatitis C virus, Huh-7, 72 h, Table III; Huh-7 HCV replicon-containing cells, three days; read-out: Activity
Outline: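 Huh-7 cells carrying a bicistronic HCV replicon (neo, EMCV-IRES-driven NS3–NS5B) treated overnight after seeding with usually 6 concentrations, 10 to 0.03 micromolar, for three days at 37° C without G418. Replication read as NPT level by captured ELISA; matched-DMSO wells and interferon alpha as controls.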

| SMILES | pEC50 |
| --- | --- |
| CCCCCCCCOc1ccc(Nc2nc(Cc3ccc(OC)cc3)cs2)cc1C(F)(F)F [compound 641, 4-(4-methoxybenzyl)-N-(3-(trifluoromethyl)-4-(octyloxy)phenyl)thiazol-2-amine] | > 6.00 |
| CCCCCOc1ccc(Nc2nc(Cc3ccc(OC)cc3)cs2)cc1F [compound 642, 4-(4-methoxybenzyl)-N-(3-fluoro-4-(pentyloxy)phenyl)thiazol-2-amine] | < 5.00 |
| CCCCCN(C)c1ccc(Nc2nc(Cc3ccc(OC)cc3)cs2)cc1C(F)(F)F [compound 643, N^4-(4-(4-methoxybenzyl)thiazol-2-yl)-2-(trifluoromethyl)-N^1-methyl-N^1-pentylbenzene-1,4-diamine] | < 5.00 |
| CCCCCCCCN(C)c1ccc(Nc2nc(Cc3ccc(OC)cc3)cs2)cc1 [compound 644, N^1-(4-(4-methoxybenzyl)thiazol-2-yl)-N^4-methyl-N^4-octylbenzene-1,4-diamine] | < 5.00 |
| CCC(CC)Oc1ccc(Nc2nc(-c3cccnc3)cs2)cc1C(F)(F)F [compound 645, N-(3-(trifluoromethyl)-4-(pentan-3-yloxy)phenyl)-4-(pyridin-3-yl)thiazol-2-amine] | > 6.00 |
| CCCCCOc1ccc(Nc2nc(-c3cncc(C(=O)O)c3)cs2)cc1C(F)(F)F [compound 646, 5-(2-(3-(trifluoromethyl)-4-(pentyloxy)phenylamino)thiazol-4-yl)pyridine-3-carboxylic acid] | > 6.00 |
| CCCCCOc1ccc(Nc2nc(-c3cncc(C(=O)N(C)C)c3)cs2)cc1C(F)(F)F [compound 647, 5-(2-(3-(trifluoromethyl)-4-(pentyloxy)phenylamino)thiazol-4-yl)-N,N-dimethylpyridine-3-carboxamide] | > 6.00 |
| CCCCCCCCOc1ccc(Nc2nc(-c3cncc(C(=O)O)c3)cs2)cc1 [compound 648, 5-(2-(4-(octyloxy)phenylamino)thiazol-4-yl)pyridine-3-carboxylic acid] | 5.00 to 6.00 |
| CCCCCCCCOc1ccc(Nc2nc(-c3cncc(C(=O)N(C)C)c3)cs2)cc1 [compound 649, 5-(2-(4-(octyloxy)phenylamino)thiazol-4-yl)-N,N-dimethylpyridine-3-carboxamide] | 5.00 to 6.00 |
| CCCCCCCCOc1ccc(Nc2nc(O)cs2)cc1C(F)(F)F [compound 650, 2-(3-(trifluoromethyl)-4-(octyloxy)phenylamino)thiazol-4-ol] | 5.00 to 6.00 |
| CCCCCCCCN(C)c1ccc(Nc2nc(O)cs2)cc1C(F)(F)F [compound 651] | 5.00 to 6.00 |
| Oc1csc(Nc2ccc(OCCCC3CCCC3)c(C(F)(F)F)c2)n1 [compound 652] | 5.00 to 6.00 |
| CCCCCCCCOc1ccc(Nc2nc(-c3cncc(C(N)=O)c3)cs2)cc1 [compound 653, 5-(2-(4-(octyloxy)phenylamino)thiazol 4-yl)pyridine-3-carboxamide] | > 6.00 |
| CCCCCCCCOc1ccc(Nc2nc(-c3cncc(C#N)c3)cs2)cc1C(F)(F)F [compound 654, 5-(2-(3-(trifluoromethyl)-4-(octyloxy)phenylamino)thiazol-4-yl)pyridine-3-carbonitrile] | > 6.00 |
| CCCCCCCCOc1ccc(Nc2nc(-c3cncc(C#N)c3)cs2)cc1 [compound 655, 5-(2-(4-(octyloxy)phenylamino)thiazol-4-yl)pyridine-3-carbonitrile] | > 6.00 |
| CCCCCCCCOc1ccc(Nc2nc(-c3cncc(OC)c3)cs2)cc1C(F)(F)F [compound 656, N-(3-(trifluoromethyl)-4-(octyloxy)phenyl)-4-(5-methoxypyridin-3-yl)thiazol-2-amine] | 5.00 to 6.00 |
| CCCCCCCCOc1ccc(Nc2nc(-c3cncc(OC)c3)cs2)cc1 [compound 657, 4-(5-methoxypyridin-3-yl)-N-(4-(octyloxy)phenyl)thiazol-2-amine] | 5.00 to 6.00 |
| FC(F)(F)c1cc(Nc2nc(-c3cccnc3)cs2)ccc1OCC1CCCCC1 [compound 658, N-(4-(cyclohexylmethoxy)-3-(trifluoromethyl)phenyl)-4-(pyridin-3-yl)thiazol-2-amine] | > 6.00 |
| CCCCCCCCOc1ccc(Nc2nc(-c3cnc(O)cc3C)cs2)cc1C(F)(F)F [compound 659, 5-(2-(3-(trifluoromethyl)-4-(octyloxy)phenylamino)thiazol-4-yl)-4-methylpyridin-2-ol] | > 6.00 |
| CCCCCCCCOc1ccc(Nc2nc(-c3ccc4c(c3)COC4=O)cs2)cc1C(F)(F)F [compound 660, 5-(2-(3-(trifluoromethyl)-4-(octyloxy)phenylamino)thiazol-4-yl)isobenzofuran-1(3H)-one] | > 6.00 |
| CCCCCCCCOc1ccc(Nc2nc(-c3ccc(-n4ccnc4)cc3)cs2)cc1C(F)(F)F [compound 661, 4-(4-(1H-imidazol-1-yl)phenyl)-N-(3-(trifluoromethyl)-4-(octyloxy)phenyl)thiazol-2-amine] | > 6.00 |

| SMILES | pEC50 |
| --- | --- |
| CCCCCCCCOc1ccc(Nc2nc(-c3cnc(OC)nc3)cs2)cc1C(F)(F)F [compound 662, N-(3-(trifluoromethyl)-4-(octyloxy)phenyl)-4-(2-methoxypyrimidin-5-yl)thiazol-2-amine] | > 6.00 |
| CCCCCCCCOc1ccc(Nc2nc(-c3cncn3C)cs2)cc1C(F)(F)F [compound 663, N-(3-(trifluoromethyl)-4-(octyloxy)phenyl)-4-(1-methyl-1H-imidazol-5-yl)thiazol-2-amine] | > 6.00 |
| CCCCCCCCOc1ccc(Nc2nc(-c3cccc4nsnc34)cs2)cc1C(F)(F)F [compound 664, 4-(benzo[c][1,2,5]thiadiazol-4-yl)-N-(3-(trifluoromethyl)-4-(octyloxy)phenyl)thiazol-2-amine] | > 6.00 |
| CCCCCCCCOc1ccc(Nc2nc(-c3ccc4[nH]c(=O)oc(=O)c4c3)cs2)cc1C(F)(F)F [compound 665, 6-(2-(3-(trifluoromethyl)-4-(octyloxy)phenylamino)thiazol-4-yl)-1H-benzo[d][1,3]oxazine-2,4-dione] | > 6.00 |
| CCCCCCCCOc1ccc(Nc2nc(-c3ccc(CCO)cc3)cs2)cc1C(F)(F)F [compound 666, 2-(4-(2-(3-(trifluoromethyl)-4-(octyloxy)phenylamino)thiazol-4-yl)phenyl)ethanol] | > 6.00 |
| CCCCCCCCOc1ccc(Nc2nc(-c3ccsc3C(N)=O)cs2)cc1C(F)(F)F [compound 667, 3-(2-(3-(trifluoromethyl)-4-(octyloxy)phenylamino)thiazol-4-yl)thiophene-2-carboxamide] | > 6.00 |
| CCCCCCCCOc1ccc(Nc2nc(-c3ccc(-c4csnn4)cc3)cs2)cc1C(F)(F)F [compound 668, 4-(4-(1,2,3-thiadiazol-4-yl)phenyl)-N-(3-(trifluoromethyl)-4-(octyloxy)phenyl)thiazol-2-amine] | > 6.00 |
| CCCCCCCCOc1ccc(Nc2nc(-c3ccc4c(c3)SCC(=O)N4)cs2)cc1C(F)(F)F [compound 669, 7-(2-(3-(trifluoromethyl)-4-(octyloxy)phenylamino)thiazol-4-yl)-2H-benzo[b][1,4]thiazin-3(4H)-one] | > 6.00 |
| CCCCCCCCOc1ccc(Nc2nc(-c3ccc(N)nn3)cs2)cc1C(F)(F)F [compound 670, 6-(2-(3-(trifluoromethyl)-4-(octyloxy)phenylamino)thiazol-4-yl)pyridazin-3-amine] | > 6.00 |
| CCCCCCCCOc1ccc(Nc2nc(-c3ccsc3C#N)cs2)cc1C(F)(F)F [compound 671, 3-(2-(3-(trifluoromethyl)-4-(octyloxy)phenylamino)thiazol-4-yl)thiophene-2-carbonitrile] | > 6.00 |
| CCCCCCCCOc1ccc(Nc2nc(-c3cnc(Cl)c(C(=O)OC)c3)cs2)cc1C(F)(F)F [compound 672, methyl 5-(2-(3-(trifluoromethyl)-4-(octyloxy)phenylamino)thiazol-4-yl)-2-chloropyridine-3-carboxylate] | > 6.00 |
| CCCCCCCCOc1ccc(Nc2nc(-c3ccc4nccn4c3)cs2)cc1C(F)(F)F [compound 673, N-(3-(trifluoromethyl)-4-(octyloxy)phenyl)-4-(H-imidazo[1,2-a]pyridin-6-yl)thiazol-2-amine] | > 6.00 |
| CCCCCCCCOc1ccc(Nc2nc(-c3cnc4ccc(C#N)cn34)cs2)cc1C(F)(F)F [compound 674, 3-(2-(3-(trifluoromethyl)-4-(octyloxy)phenylamino)thiazol-4-yl)H-imidazo[1,2-a]pyridine-6-carbonitrile] | > 6.00 |
| CCCCCCC(C)Oc1ccc(Nc2nc(-c3cccnc3)cs2)cc1C(F)(F)F (centres unmarked) [compound 675, N-(3-(trifluoromethyl)-4-(octan-2-yloxy)phenyl)-4-(pyridin-3-yl)thiazol-2-amine] | > 6.00 |
| CCCCCCC(C)Oc1ccc(Nc2nc(-c3ccc(NC(C)=O)nc3)cs2)cc1C(F)(F)F (centres unmarked) [compound 676, N-(5-(2-(3-(trifluoromethyl)-4-(octan-2-yloxy)phenylamino)thiazol-4-yl)pyridin-2-yl)acetamide] | > 6.00 |
| CCCCCCC(C)Oc1ccc(Nc2nc(-c3ccc(N)nc3)cs2)cc1C(F)(F)F (centres unmarked) [compound 677, 5-(2-(3-(trifluoromethyl)-4-(octan-2-yloxy)phenylamino)thiazol-4-yl)pyridin-2-amine] | > 6.00 |
| CCCCCCCCOc1ccc(Nc2nc(-c3ccc(NC(C)=O)nc3)cs2)cc1C(F)(F)F [compound 678, N-(5-(2-(3-(trifluoromethyl)-4-(octyloxy)phenylamino)thiazol-4-yl)pyridin-2-yl)acetamide] | > 6.00 |
| CCCCCCCCOc1ccc(Nc2nc(-c3ccc(N)nc3)cs2)cc1C(F)(F)F [compound 679, 5-(2-(3-(trifluoromethyl)-4-(octyloxy)phenylamino)thiazol-4-yl)pyridin-2-amine] | > 6.00 |
| CCCC(CCC)Oc1ccc(Nc2nc(-c3cccnc3)cs2)cc1C(F)(F)F [compound 680, N-(3-(trifluoromethyl)-4-(heptan-4-yloxy)phenyl)-4-(pyridin-3-yl)thiazol-2-amine] | > 6.00 |
| CCCCCCCCOc1ccc(Nc2nc(-c3ncccn3)cs2)cc1C(F)(F)F [compound 681, N-(3-(trifluoromethyl)-4-(octyloxy)phenyl)-4-(pyrimidin-2-yl)thiazol-2-amine] | > 6.00 |
